Assay results published in ChEMBL document CHEMBL2046330, “Structure-based design of novel benzoxazinorifamycins with potent binding affinity to wild-type and rifampin-resistant mutant Mycobacterium tuberculosis RNA polymerases” (J Med Chem, 2012).

Assays:
[1] = Inhibition of Mycobacterium tuberculosis RNA polymerase S450L mutant by rolling circle transcription assay in the presence of sigmaA factor
[2] = Inhibition of Mycobacterium tuberculosis RNA polymerase D435V mutant by rolling circle transcription assay in the presence of sigmaA factor
[3] = tested on: Mycobacterium tuberculosis; assay: Ratio of rifalazil IC50 to compound IC50 for Mycobacterium tuberculosis RNA polymerase D435V mutant in the presence of sigmaA factor
[4] = tested on: Mycobacterium tuberculosis; assay: Ratio of rifalazil IC50 to compound IC50 for Mycobacterium tuberculosis RNA polymerase S450L mutant in the presence of sigmaA factor
[5] = Inhibition of Mycobacterium tuberculosis RNA polymerase H445Y mutant by rolling circle transcription assay in the presence of sigmaA factor
[6] = Inhibition of Mycobacterium tuberculosis RNA polymerase H445Y mutant by rolling circle transcription assay in the absence of sigmaA factor
[7] = Inhibition of Mycobacterium tuberculosis RNA polymerase S450L mutant by rolling circle transcription assay in the absence of sigmaA factor
[8] = Inhibition of Mycobacterium tuberculosis RNA polymerase D435V mutant by rolling circle transcription assay in the absence of sigmaA factor

Compound | IC50 [1] [µM] | IC50 [2] [µM] | Ratio IC50 [3] | Ratio IC50 [4] | IC50 [5] [µM] | IC50 [6] [µM] | IC50 [7] [µM] | IC50 [8] [µM]
CO[C@H]1/C=C/O[C@@]2(C)Oc3c(C)c(O)c4c(=O)c(c5oc6cccc(OCCCCN7CCN(CCn8ccnc8)CC7)c6nc-5c4c3C2=O)NC(=O)/C(C)=C\C=C\[C@H](C)[C@H](O)[C@@H](C)[C@@H](O)[C@@H](C)[C@H](OC(C)=O)[C@@H]1C | 18 | 9 | 26 | 7 | 437 |  |  | 
CO[C@H]1/C=C/O[C@@]2(C)Oc3c(C)c(O)c4c(O)c(c(/C=N/N5CCN(C)CC5)c(O)c4c3C2=O)NC(=O)/C(C)=C\C=C\[C@H](C)[C@H](O)[C@@H](C)[C@@H](O)[C@@H](C)[C@H](OC(C)=O)[C@@H]1C [RIFAMPIN] |  |  |  |  |  | 830 | 126 | 313
CO[C@H]1/C=C/O[C@@]2(C)Oc3c(C)c(O)c4c(=O)c(c5oc6cc(N7CCN(CC(C)C)CC7)cc(O)c6nc-5c4c3C2=O)NC(=O)/C(C)=C\C=C\[C@H](C)[C@H](O)[C@@H](C)[C@@H](O)[C@@H](C)[C@H](OC(C)=O)[C@@H]1C [RIFALAZIL] | 117 | 541 |  |  | 172 |  |  | 
CCN(CC)CCOc1cccc2oc3c4c(=O)c5c(O)c(C)c6c(c5c-3nc12)C(=O)[C@@](C)(O/C=C/[C@H](OC)[C@@H](C)[C@@H](OC(C)=O)[C@H](C)[C@H](O)[C@H](C)[C@@H](O)[C@@H](C)/C=C/C=C(/C)C(=O)N4)O6 | 16 | 20 | 26 | 7 | 171 |  |  | 
CO[C@H]1/C=C/O[C@@]2(C)Oc3c(C)c(O)c4c(=O)c(c5oc6cccc(OCCCCN7CCN(C(=O)Cn8ccnc8)CC7)c6nc-5c4c3C2=O)NC(=O)/C(C)=C\C=C\[C@H](C)[C@H](O)[C@@H](C)[C@@H](O)[C@@H](C)[C@H](OC(C)=O)[C@@H]1C | 122 | 13 | 26 |  | 574 |  |  | 
